What was measured:
hPPAR gamma = biological target: T1, hPPAR gamma (Homo sapiens, UniProt P37231); experiment: Transient transfection (transactivation) assay in CV-1 cells, hPPAR gamma; type: cell-based; details: GAL4 chimera, SPAP reporter, read-out: EC50 nM HPPARy
T1 construct: expressed in transfected cells; host or cells: CV-1 cells
T1 sequence (P37231 238-503 limits assumed): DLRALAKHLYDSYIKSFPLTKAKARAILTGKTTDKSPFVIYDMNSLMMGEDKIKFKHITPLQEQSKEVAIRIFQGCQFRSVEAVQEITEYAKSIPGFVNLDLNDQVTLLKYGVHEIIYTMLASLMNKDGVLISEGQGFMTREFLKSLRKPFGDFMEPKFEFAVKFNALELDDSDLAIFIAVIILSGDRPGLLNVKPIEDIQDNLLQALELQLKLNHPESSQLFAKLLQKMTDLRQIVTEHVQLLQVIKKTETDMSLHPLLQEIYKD
Description: (§1) Compounds were screened for functional potency in transient transfection assays in CV-1 cells for their ability to activate the PPAR subtypes (transactivation assay). A previously established chimeric receptor system was utilized to allow comparison of the relative transcriptional activity of the receptor subtypes on the same target gene and to prevent endogenous receptor activation from complicating the interpretation of results. See, for example, Lehmann, J. M.; Moore, L. B.; Smith-Oliver, T. A.; Wilkison, W. O.; Willson, T. M.; Kliewer, S. A., An antidiabetic thiazolidinedione is a high affinity ligand for peroxisome proliferator-activated receptor gamma (PPARgamma), J. Biol. Chem., 1995, 270, 12953–6. The ligand binding domains for murine and human PPAR alpha, PPAR gamma, and PPAR delta were each fused to the yeast transcription factor GAL4 DNA binding domain. CV-1 cells were transiently transfected with expression vectors for the respective PPAR chimera along with0 a reporter construct containing five copies of the GAL4 DNA binding site driving expression of secreted placental alkaline phosphatase (SPAP) and β-galactosidase. After 16 h, the medium was exchanged to DME medium supplemented with 10% delipidated fetal calf serum and the test compound at the appropriate concentration. […]

hPPAR delta = biological target: T2, hPPAR delta (Homo sapiens, UniProt Q03181); experiment: Transient transfection (transactivation) assay in CV-1 cells, hPPAR delta; type: cell-based; details: GAL4 chimera, SPAP reporter, read-out: EC50 nM HPPARδ
T2 construct: expressed in transfected cells; host or cells: CV-1 cells
T2 sequence (Q03181 211-439 limits assumed): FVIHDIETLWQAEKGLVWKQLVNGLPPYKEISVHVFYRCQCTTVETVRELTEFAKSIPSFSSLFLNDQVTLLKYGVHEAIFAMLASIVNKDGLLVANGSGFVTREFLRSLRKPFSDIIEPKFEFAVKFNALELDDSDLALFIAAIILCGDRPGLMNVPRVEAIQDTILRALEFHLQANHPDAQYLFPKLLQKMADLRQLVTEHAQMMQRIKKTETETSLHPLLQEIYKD
Description: as §1

hPPAR alpha = biological target: T3, hPPAR alpha (Homo sapiens, UniProt Q07869); experiment: Transient transfection (transactivation) assay in CV-1 cells, hPPAR alpha; type: cell-based; details: GAL4 chimera, SPAP reporter, read-out: EC50 nM HPPARα
T3 construct: expressed in transfected cells; host or cells: CV-1 cells
T3 sequence (Q07869 239-466 limits assumed): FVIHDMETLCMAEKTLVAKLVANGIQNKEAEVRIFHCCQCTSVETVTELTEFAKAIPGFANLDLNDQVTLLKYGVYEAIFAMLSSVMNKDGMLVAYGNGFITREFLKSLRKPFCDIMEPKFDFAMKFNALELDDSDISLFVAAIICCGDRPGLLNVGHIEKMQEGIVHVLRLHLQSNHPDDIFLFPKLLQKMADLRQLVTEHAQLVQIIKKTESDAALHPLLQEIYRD
Description: as §1

| EC50 (hPPAR gamma) | EC50 (hPPAR delta) | EC50 (hPPAR alpha) | melting point | Compound |
| --- | --- | --- | --- | --- |
| 700 nM | 8740 nM | 5 nM |  | CCc1ccc(-c2sc(C(=O)NCc3ccc(OC(C)(C)C(=O)O)cc3)nc2C)cc1 [Example 2, 2-methyl-2–[4-{[(4-methyl-5-[4-ethylphenyl]thiazol-2-ylcarbonyl)amino]methyl}phenoxy]propionic Acid] |
| 5880 nM | 10000 nM | 61 nM | 122 °C | Cc1nc(C(=O)NCc2ccc(OC(C)(C)C(=O)O)cc2)sc1-c1ccc(F)cc1 [Example 4, 2-methyl-2-[4-{[(4-methyl-5-[4-fluorophenyl]thiazol-2-ylcarbonyl)amino]methyl}phenoxy]propionic Acid] |
|  |  |  | 97 °C | CCOC(=O)C(C)(C)Oc1ccc(CNC(=O)c2nc(C)c(-c3ccc(F)cc3)s2)cc1 [Example 3, 2-methyl-2-[4-{[(4-methyl-5-[4-fluorophenyl]thiazol-2-ylcarbonyl)amino]methyl}phenoxy]propionic Acid Ethyl Ester] |

Source: patent US7157479B2, “Oxazol/thiazol-derivatives activators of the hPPAR-alpha receptor” (Glaxo Group Limited, priority 2001, dated 2007)
